Measured values as given in patent US20220372013A2, “PIPERIDINE-2,6-DIONE DERIVATIVES AND CROHN'S DISEASE TREATING” (Tianjin Hemay Pharmaceutical Sci-Tech Co., Ltd, priority 2016, published 2022).
Read-outs that look alike come from different tables or passages of the source. Marks after values point to notes of the source that are not given here.

Legend:
Assay type in all cases: in vivo, Wistar rats
[1] = tested on: DNBS-Induced Inflammatory Bowel Disease Models in Rats; assay: Biological Example 4: DNBS-induced inflammatory bowel disease models in rats; details: 30 mg/Kg i.g. qd × 7; for Body weight: Mean ± SD; for inhibition in vivo at 30 mg/kg: Rattus norvegicus, po, 168 h
Outline: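 Male Wistar rats fasted 72 h received intrarectal 0.5 mL of 50 mg/mL DNBS in 30% ethanol at 8 cm from the anus under ether anaesthesia. Dosing with drug or 1% CMC-Na vehicle began 4 h post-induction, once daily. On day 7, colon adhesion, length, ulcer area and weight-to-length ratio were assessed.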

[2] = tested on: DNBS-Induced Inflammatory Bowel Disease Models in Rats; assay: Biological Example 3: DNBS-induced inflammatory bowel disease models in rats; details: 30 mg/Kg i.g. qd × 7; for Body weight: Mean ± SD
Protocol: 102 male Wistar rats were fasted for 40 hours. A 5% glucose injection (10 mL/Kg) was administered subcutaneously during fasting. 72 rats with normal conditions and moderate body weight were selected from the fasting rats. The animals were randomly divided into 9 groups according to the body weight (see Table 9. Grouped Table).
The animals were anesthetized with ether after 40 hours fasting. A specially made gavage device was slowly inserted into the enteric cavity at 8 cm from the anus. The model control group and each test group were administered with 0.5 mL of 50 mg/mL DNBS in 30% ethanol solution. The normal control group was administered with 0.5 mL of 30% ethanol solution. The animals were inverted in anesthesia for 15 minutes. The day when the model was prepared was day 0 of the experiment. After 4 hours of DNBS induction, the corresponding drug or the corresponding volume of 1% CMC-Na was administered once per day. On day 7 of the experiment, the animals were euthanized to score the colon adhesion degree, measure the length of colon and ulcer area, weigh colon and calculate the colon weight to length ratio.
One-way ANOVA analysis of the length of colon and colon weight per length of rats was performed by SPSS22. Statistical analyses between groups were performed. The adhesion degree was scored. Mann-Whitney U non-parametric test was performed on ulcer area. Statistical analyses between groups were performed.
Calculation Formula of Inhibitory rate of weight increase per length: (Colon weight to length ratio in model group−Colon weight to length ratio in administration group)/(Colon weight to length ratio in model group−Colon weight to length ratio in blank group)

[3] = tested on: DNBS-Induced Inflammatory Bowel Disease Models in Rats; assay: Biological Example 2: DNBS-induced inflammatory bowel disease models in rats
Protocol: 110 male Wistar rats were fasted for 40 hours. A 5% glucose injection (10 mL/Kg) was administered subcutaneously during fasting. 48 rats with normal conditions and moderate body weight were selected from the fasting rats. The animals were randomly divided into […] according to the body weight: normal control group, model control group, sulfasalazine group (300 mg/Kg), dexamethasone group (0.1 mg/Kg), the compound in Example 26 group (30 mg/kg) and the compound in Example 27 group (30 mg/kg), with 8 rats in each group. The animals were anesthetized with isoflurane. A specially made gavage device (made by a rat gavage device having the diameter of 2 mm, which was nested on a mouse gavage device having the diameter of 1 mm) was slowly inserted into the enteric cavity at 8 cm from the anus. The model control group, the compound in Example 26 group and the compound in Example 27 group were administered with 0.5 mL of 50 mg/mL DNBS in 30% ethanol solution. The normal control group was administered with 0.5 mL of 30% ethanol solution. The animals were inverted in anesthesia for 15 minutes after the gavage device was removed. The day when the model was prepared was the first day of the experiment. After 4 hours of DNBS induction, the corresponding drug or the corresponding volume of 1% CMC-Na was administered once per day. On the sixth day of the experiment, the animals were euthanized to observe the results of each index so as to score the colon adhesion degree, measure the length of colon and ulcer area, weigh colon and calculate the colon weight to length ratio.
The compound in Example 26 and Example 27, sulfasalazine and dexamethasone: Preparation Method: Suspended with 1% CMC-Na, and prepared when it was needed.
Levene's Test for homogeneity of data was performed with Spss. Where the data were homogeneous (P>0.05), one-way ANOVA LSD test was performed. Where the analysis of variance was significant (P≤0.05), Dunnett's multiple comparison (parameter method) was performed. Where the results of Levene's Test were significant (P≤0.05), Kruskal-Wallis nonparametric test was performed. Where the results of Kruskal-Wallis nonparametric test were significant (P≤0.05), Mann-Whitney U test was performed for pairwise comparison.

[4] = 30 mg/Kg i.g. qd × 6, sixth day, Mean ± SD

## COCCN1C(=O)CCC(N2C(=O)c3cccc(N)c3C2=O)C1=O (stereo not shown) [Example 27, 4-amino-2-(1-(2-methoxyethyl)-2,6-dioxopiperidin-3-yl)isoindolin-1,3-dione]
[1]; day 7
  Colon weight to length ratio: 106 ± 14 mg/cm
  Ulcer area of colon: 0.4 ± 0.6 cm^2
[1]; Day 1
  Body weight: 125.5 ± 8.4 g
[1]; Day 2
  Body weight: 124.4 ± 8.1 g
[1]; Day 3
  Body weight: 125.8 ± 8.2 g
[1]; Day 4
  Body weight: 133.1 ± 9.2 g
[1]; Day 5
  Body weight: 141.6 ± 12.0 g
[1]; Day 6
  Body weight: 146.7 ± 11.8 g
[1]; Day 7
  Body weight: 156.3 ± 11.0 g
[1]; day 7, read-out: Inhibitory rate of ulcer area of colon
  inhibition in vivo at 30 mg/kg: 83.3%
[1]; day 7, read-out: Inhibitory rate of weight increase per length
  inhibition in vivo at 30 mg/kg: 65.9%
[2]; day 7
  Adhesion Degree of Colon: 0.9 ± 0.4 point
  Colon weight to length ratio: 109 ± 12 mg/cm
  Inhibitory rate of colon adhesion: 47.1# %
  Inhibitory rate of ulcer area of colon: 99.7## %
  Inhibitory rate of weight increase per length: 58.2## %
  Ulcer area of colon: 0.01 ± 0.02## cm^2
[2]; Day 0
  Body weight: 135.4 ± 4.9 g
[2]; Day 1
  Body weight: 135.2 ± 4.2 g
[2]; Day 2
  Body weight: 136.7 ± 5.0 g
[2]; Day 3
  Body weight: 141.7 ± 7.5 g
[2]; Day 4
  Body weight: 150.1 ± 9.2 g
[2]; Day 5
  Body weight: 159.1 ± 10.3 g
[2]; Day 6
  Body weight: 165.2 ± 10.0 g
[2]; Day 7
  Body weight: 175.8 ± 8.2 g
[3]; [4]
  Adhesion Degree: 0.9 ± 0.8 Points
  Colon Length: 12.9 ± 2.3 cm
  Colon Weight: 1737.9 ± 410.6 mg
  Ulcer Area: 2.0 ± 1.9 cm^2
[3]; 30 mg/kg i.g. qd × 6
  therapeutic effects on the model (in words): good therapeutic effects
[3]; fourth day of the experiment, compared with model control group, doses as in Table 7
  growth rate of the body weight (in words): higher than that in the model control group
